Paper PMC8151276, “An Integrated Approach toward NanoBRET Tracers for Analysis of GPCR Ligand Engagement” (Molecules, 2021)

Molecular target: T1, PTAFR (Homo sapiens, UniProt P25105)
T1 construct: purchased Promega (in-house HiBiT-GPCR construct library, NanoBRET)
Test: NanoBRET screen HiBiT-PTAFR in HEK293
Type: binding
Experimental: Each tracer candidate was screened across the entire library of HiBiT-GPCR constructs using NanoBRET as the detection modality. As depicted in Figure 4A, the specificity of interactions was evaluated through decrease in BRET due to competitive displacement of a bound tracer by excess parental compound. Each tracer was analyzed for binding to each HiBiT-GPCR fusion in the absence and in the presence of competing parental compound. Briefly, HEK293 cells were transfected with HiBiT-GPCR constructs diluted into promoterless DNA to reduce expression and maximize translocation to the cell surface. Each tracer candidate was then screened at concentrations of 1 μM and 0.1 μM across cells expressing these fusions. Cells were treated for 1.5 h with tracer either alone or in the presence of 20 μM competing parental compound (i.e., control). BRET was measured upon addition of purified LgBiT and subsequent complementation with HiBiT genetically fused to a GPCR. The specificity of interactions was assessed through a decrease in BRET signal due to competitive displacement of the bound tracer. To further gauge the robustness of these interactions, the fold response over the control (i.e., BRETtracer/BRETcontrol) was calculated. We chose a 1.5-fold response, which translates to ≥7-fold signal over noise as the minimal threshold required to score an interaction as positive. […]. Below we highlight the screening results obtained for our exemplary fluorescent tracers based on Clozapine, Amitriptyline and AZD1283.
HiBiT-GPCR DNA constructs were diluted in 10 mM Tris pH 8 to a final concentration of 0.01 μg/μL, arrayed in 96-well plates and stored at −20 °C. For transfection, HEK293 cells were suspended in Opti-MEM (without phenol red) supplemented with 2% fetal bovine serum (Seradigm) and 100 units/mL penicillin–streptomycin (Gibco) at a final concentration of 220,000 cells/mL and dispensed into white 96-well plates at 90 μL/well. Subsequent transfections and screens were carried using an Agilent Bravo Automated Liquid Handling Platform. First, the 96-well HiBiT DNA arrays were diluted 25-fold in Opti-MEM (without serum or phenol red) to a final concentration of 0.0004 μg/μL and 20 μL of the diluted DNAs were transferred into new 96-well plates. Next, promoterless carrier DNA (1 μg/μL) was diluted 25-fold (0.04 μg/μL) and then dispensed into the diluted arrays at 20 μL/well. Following brief mixing, Viafect transfection reagent (Promega) diluted 16-fold into Opti-MEM was dispensed into the plates at 40 μL/well. After mixing by pipetting, plates were incubated for 10 min on the pipetting station deck. The DNA-transfection reagent complexes were then added to plates containing cells. To facilitate the screen, 10 μL of DNA-transfection reagent complexes were added in duplicates to the top 4 and bottom 4 rows, resulting in two identical 48-well arrays per plate. Plates with transfected cells were incubated for 18–20 h at 37 °C/5% CO2. A screen of each tracer across the entire library using two different concentrations requires duplicate plates of transfected cells. Depending on the number of tracers being screened, transfections can be scaled up using the same ratios. The next day, for each tracer, four 20× screening solutions in tracer dilution buffer (Promega) were prepared: two duplicates at final concentration of 20 μM and two duplicates at a final concentration of 2 μM. A competing unmodified compound was added to one of each duplicate at a final concentration of 400 μM. The four resulting solutions were diluted 4-fold in Opti-MEM without serum or phenol red to generate 5× solutions (5 µM and 0.5 µM tracer +/− 100 μM competing compound). To screen the library, a BioTek MultiFlo FX liquid dispenser was used to dispense 22.5 µL of tracer solution to the top 4 rows and 22.5 µL tracer + competing compound solution to the 4 bottom rows. Plates were briefly mixed on an orbital shaker and incubated for 1.5 h at room temperature. […]

T1 sequence (P25105 whole entry): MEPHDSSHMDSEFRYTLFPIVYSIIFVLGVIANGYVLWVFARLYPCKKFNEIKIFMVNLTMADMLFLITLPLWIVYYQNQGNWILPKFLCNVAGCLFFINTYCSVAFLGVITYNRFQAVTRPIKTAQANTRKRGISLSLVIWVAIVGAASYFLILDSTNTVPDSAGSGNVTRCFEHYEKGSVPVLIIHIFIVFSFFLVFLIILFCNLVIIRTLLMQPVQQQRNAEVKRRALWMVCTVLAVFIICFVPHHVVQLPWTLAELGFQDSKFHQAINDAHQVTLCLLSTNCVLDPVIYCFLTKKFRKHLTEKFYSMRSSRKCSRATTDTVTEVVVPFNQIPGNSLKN

Compound: CCOC(=O)c1cc(C#N)c(N2CCC(C(=O)NS(=O)(=O)Cc3ccccc3/C=C/C(=O)NCCNC(=O)CCc3ccc4n3[B-](F)(F)[N+]3=C(c5ccc[nH]5)C=CC3=C4)CC2)nc1C [AZD1283-1-NB590]
- NanoBRET Fold Response (PTAFR, 0.1μM): 1.01
- NanoBRET Fold Response (PTAFR, 1μM): 1.17

Compound: N#CN=C(NCCCOc1cccc(CN2CCCCC2)c1)NCCNC(=O)CCOCCOCCOCCOCCNC(=O)CCc1ccc2n1[B-](F)(F)[N+]1=C(c3ccc[nH]3)C=CC1=C2 [Aminopotentidine-2-NB590]
- NanoBRET Fold Response (PTAFR, tracer 0.1μM): 0.95
- NanoBRET Fold Response (PTAFR, tracer 1μM): 1.02

Compound: CN(C)CCC=C1c2ccccc2CCc2ccc(C(=O)NCCNC(=O)CCOCCOCCOCCOCCNC(=O)CCc3ccc4n3[B-](F)(F)[N+]3=C(c5ccc[nH]5)C=CC3=C4)cc21 [Amitriptyline-a-2-NB590]
- NanoBRET Fold Response (tracer at 0.1μM): 1.10
- NanoBRET Fold Response (tracer at 1μM): 0.90

Compound: CN(C)CCC=C1c2ccccc2CCc2ccc(C(=O)NCCNC(=O)CCOCCOCCOCCOCCNC(=O)CCc3ccc4n3[B-](F)(F)[N+]3=C(c5ccc[nH]5)C=CC3=C4)cc21 [Amitriptyline-b-2-NB590]
- NanoBRET Fold Response (tracer at 0.1μM, listed as amitriptyline-b-2-NB590): 0.92
- NanoBRET Fold Response (tracer at 1μM, listed as amitriptyline-b-2-NB590): 1.02

Compound: CN(CCC=C1c2ccccc2CCc2ccccc21)C(=O)CCOCCOCCOCCOCCNC(=O)CCc1ccc2n1[B-](F)(F)[N+]1=C(c3ccc[nH]3)C=CC1=C2 [Amitriptyline-e-2-NB590]
- NanoBRET Fold Response (tracer at 1μM): 1.06

Compound: COc1ccc2c(n1)c(CCNC(C)=O)cn2CCNC(=O)CCc1ccc2n1[B-](F)(F)[N+]1=C(c3ccc[nH]3)C=CC1=C2 [Azamelatonin-1-NB590]
- NanoBRET Fold Response (0.1μM tracer): 1.05
- NanoBRET Fold Response (1μM tracer): 1.05

Compound: COc1ccc2[nH]c(-c3ccc(CNC(=O)CCOCCOCCOCCOCCNC(=O)CCc4ccc5n4[B-](F)(F)[N+]4=C(c6ccc[nH]6)C=CC4=C5)cc3)c(CCNC(C)=O)c2n1 [AzomelatoninICO9-2-NB590]
- NanoBRET Fold Response (0.1μM tracer): 1.01
- NanoBRET Fold Response (1μM tracer): 0.99

Compound: O=C(CCOCCOCCOCCOCCNC(=O)CCc1ccc2n1[B-](F)(F)[N+]1=C(c3ccc[nH]3)C=CC1=C2)NCCCN1CCN(C2=Nc3cc(Cl)ccc3Nc3ccccc32)CC1 [Clozapine-a-2-NB590]
- NanoBRET Fold Response (PTAFR, 0.1μM tracer): 1.01
- NanoBRET Fold Response (PTAFR, 1μM tracer): 0.99

Compound: CN1CCN(C2=Nc3cc(Cl)ccc3Nc3ccc(CNC(=O)CCOCCOCCOCCOCCNC(=O)CCc4ccc5n4[B-](F)(F)[N+]4=C(c6ccc[nH]6)C=CC4=C5)cc32)CC1 [Clozapine-b-2-NB590]
- NanoBRET Fold Response (PTAFR, 0.1μM tracer): 1.01
- NanoBRET Fold Response (PTAFR, 1μM tracer): 1.14

Compound: CN1CCN(C2=Nc3cc(Cl)ccc3N(CC(=O)NCCOCCOCCOCCOCCNC(=O)CCc3ccc4n3[B-](F)(F)[N+]3=C(c5ccc[nH]5)C=CC3=C4)c3ccccc32)CC1 [Clozapine-c-2-NB590]
- NanoBRET Fold Response (PTAFR, 0.1μM tracer): 1.01
- NanoBRET Fold Response (PTAFR, 1μM tracer): 1.02

Compound: O=C(CCOCCOCCOCCOCCNC(=O)CCc1ccc2n1[B-](F)(F)[N+]1=C(c3ccc[nH]3)C=CC1=C2)NCCCN1CCN(C2=Nc3ccccc3Oc3ccc(Cl)cc32)CC1 [Loxapine-a-2-NB590]
- NanoBRET Fold Response (PTAFR, tracer 0.1μM): 1.10
- NanoBRET Fold Response (PTAFR, tracer 1μM): 1.09

Compound: COc1ccccc1N1CCN(CCCCN2C(=O)c3ccc(CNC(=O)CCOCCOCCOCCOCCNC(=O)CCc4ccc5n4[B-](F)(F)[N+]4=C(c6ccc[nH]6)C=CC4=C5)cc3C2=O)CC1 [NAN-190-2-NB590]
- NanoBRET Fold Response (PTAFR, tracer 0.1μM): 1.03
- NanoBRET Fold Response (PTAFR, tracer 1μM): 1.04

Compound: COc1ccccc1N1CCN(CCCCN2C(=O)c3ccc(CNC(=O)CCOCCNC(=O)c4ccc(CNC(=O)CCc5ccc6n5[B-](F)(F)[N+]5=C(c7ccc[nH]7)C=CC5=C6)cc4)cc3C2=O)CC1 [NAN-190-3-NB590]
- NanoBRET Fold Response (PTAFR, tracer 0.1μM): 1.05
- NanoBRET Fold Response (PTAFR, tracer 1μM): 1.30

Compound: O=C(CCc1ccc2n1[B-](F)(F)[N+]1=C(c3ccc[nH]3)C=CC1=C2)NCc1ccc(C(=O)NCCOCCC(=O)N[C@@H]2CC[C@@]3(O)[C@H]4Cc5ccc(O)c6c5[C@@]3(CCN4CC3CC3)[C@H]2O6)cc1 [Naltrexone-3-NB590]
- NanoBRET Fold Response (PTAFR, tracer 0.1μM): 1.24
- NanoBRET Fold Response (PTAFR, tracer 1μM): 0.78

Compound: Cc1cc2c(s1)Nc1ccccc1N=C2N1CCN(CCCNC(=O)CCOCCOCCOCCOCCNC(=O)CCc2ccc3n2[B-](F)(F)[N+]2=C(c4ccc[nH]4)C=CC2=C3)CC1 [Olanzapine-a-2-NB590]
- NanoBRET Fold Response (PTAFR, tracer 0.1μM): 1.00
- NanoBRET Fold Response (PTAFR, tracer 1μM): 0.99

Compound: O=C(CCc1ccc2n1[B-](F)(F)[N+]1=C(c3ccc[nH]3)C=CC1=C2)NCc1ccc(C(=O)NCCOCCOCCNCC(O)COc2cccc3ccccc23)cc1 (centres unmarked) [Propranolol-3-NB590]
- NanoBRET Fold Response (PTAFR, 0.1μM): 1.02
- NanoBRET Fold Response (PTAFR, 1μM): 1.04

Compound: O=C(CCc1ccc2n1[B-](F)(F)[N+]1=C(c3ccc[nH]3)C=CC1=C2)NCCOCCOCCNC(=O)OCCOCCN1CCN(C2=Nc3ccccc3Sc3ccccc32)CC1 [Quetiapine-a-2-NB590]
- NanoBRET Fold Response (PTAFR, tracer 0.1μM): 1.05
- NanoBRET Fold Response (PTAFR, tracer 1μM): 1.13

Compound: Cc1nc2n(c(=O)c1CCN1CCC(c3noc4cc(F)ccc34)CC1)CCCC2OC(=O)NCCOCCOCCOCCOCCNC(=O)CCc1ccc2n1[B-](F)(F)[N+]1=C(c3ccc[nH]3)C=CC1=C2 (centres unmarked) [Risperidone-2-NB590]
- NanoBRET Fold Response (PTAFR, tracer 0.1μM): 1.00
- NanoBRET Fold Response (PTAFR, tracer 1μM): 1.10

Compound: CC(C)N(CC[C@H](c1ccccc1)c1cc(CCNC(=O)CCOCCOCCOCCOCCNC(=O)CCc2ccc3n2[B-](F)(F)[N+]2=C(c4ccc[nH]4)C=CC2=C3)ccc1O)C(C)C [Tolterodine-2-NB590]
- NanoBRET Fold Response (PTAFR, tracer 0.1μM): 1.17
- NanoBRET Fold Response (PTAFR, tracer 1μM): 0.73

Compound: CC(C)N(CC[C@H](c1ccccc1)c1cc(CCNC(=O)c2ccc(CNC(=O)CCc3ccc4n3[B-](F)(F)[N+]3=C(c5ccc[nH]5)C=CC3=C4)cc2)ccc1O)C(C)C [Tolterodine-BZ-NB590]
- NanoBRET Fold Response (PTAFR, tracer 0.1μM): 0.93
- NanoBRET Fold Response (PTAFR, tracer 1μM): 0.85

Compound: CCCn1c(=O)c2[nH]c(-c3ccc(OCC(=O)NCCNC(=O)CCOCCNC(=O)c4ccc(CNC(=O)CCc5ccc6n5[B-](F)(F)[N+]5=C(c7ccc[nH]7)C=CC5=C6)cc4)cc3)nc2n(CCC)c1=O [XAC-3-NB590]
- NanoBRET Fold Response (PTAFR, tracer 0.1μM): 0.90
- NanoBRET Fold Response (PTAFR, tracer 1μM): 1.15
